Measurements: article PMC10747602, “Dose Response, Dosimetric, and Metabolic Evaluations of Replacement PFAS Perfluoro-(2,5,8-trimethyl-3,6,9-trioxadodecanoic) Acid (HFPO-TeA)” (Toxics, 2023)
Where two headings read alike, the source gives them in different places.

Tests used:
[1] = Non-targeted analysis of plasma and liver (in vivo); parameters: species or system Sprague Dawley rats; conditions: for relative peak area abundance (RA) vs. HFPO-TeA, Plasma: 5 days, mean ± SD n=8
Method: Extracts of plasma (50 µL), liver (10 mg), and hepatocyte metabolism assay media (10 µL) were analyzed by high-resolution, accurate mass non-targeted analysis (NTA) for the detection and identification of potential biotransformation products of HFPO-TeA. A mixture of ^13C-labeled PFAS compounds (MPAC-C-ES, Wellington Laboratories, Guelph, ON, Canada) were used as tracers. Samples were extracted, as detailed above (in vivo) and below (in vitro), and then analyzed in triplicate in a randomized order on a Sciex X500R QTOF. Additional information on NTA instrumental analysis and data processing parameters is presented in Supplementary Text S8 and Tables S8 and S10 [52]. […] A screening list of potential biotransformation products was generated using the U.S. EPA web application CTS: Chemical Transformation Simulator 1.0 and Biotransformer 3.0 [53, 54]. In some instances, molecular structure predictions were performed using MetFrag. […]
(§1) tube, and then further crashed with 200 µL ACN. This was repeated twice more to generate a final combined supernatant volume of 600 µL. Supernatants were stored at -20 °C prior to analysis.
Samples were quantitated against matrix-matched calibration curves containing a minimum of 5 points spanning the range 0.99 – 141 ng/mg liver (wet weight, ww). For the calibration standards, commercial rat liver (BioIVT) was spiked with HFPO-TeA and PFHxDA, homogenized, and extracted using the above procedure. […]
Support ing Text S8: Non- Target ed Analysis Met hod and Data Processing Each sample batch included a mobile phase blank and solvent blank to monitor for the presence of laboratory contamination, and a system suitability sample consisting of the set of isotopically labeled PFAS tracer compounds spiked into extraction solvent to monitor instrument performance prior to sample analysis. […] A high-resolution, exact mass spectral library created in house from IDA scans of commercially available PFAS standards analyzed on the same mass spectrometer as the samples and using the same instrument parameters was used for library searches. […]

[2] = tested on: Sprague Dawley rats; test: Mortality in five-day oral gavage exposure; LD50 calculation (BMDS 3.3.2); conditions: for LD50 estimate (lower and upper 95% bounds): oral gavage, BMDS 3.3.2 multistage 3 model
Method: Male and female rats (n = 4/sex, dose, and time point) were dosed by gavage (5 mL/kg bodyweight) once daily for five days with water (vehicle control) or HFPO-TeA at eight half-log dose levels ranging from 0.3 to 335.2 mg/kg/day (i.e., 0.3, 0.9, 2.3, 6.3, 17, 45.9, 124, and 335.2). The results reported here are part of a larger study, for which the main purpose was to use benchmark dose–response modeling of transcriptomic data to identify a gene set basis for the point of departure (POD).
Clinical observations were performed prior to first administration and at termination. Moribundity and mortality were assessed twice daily on weekdays and once daily on weekends. Animals found moribund were euthanized by carbon dioxide inhalation and death was confirmed by cervical dislocation.
The mortality incident data were analyzed using BMDS 3.3.2, with the dichotomous model selected as the model type. The Benchmark Response was set at 0.5 extra risk. LD50 estimates were based on the model with the lowest Akaike information criterion (AIC).

[3] = Liver-to-plasma partitioning (Kp); assay type: in vivo, Sprague Dawley rats; conditions: Sprague Dawley, rat, oral, 5 days
Method: Liver samples were analyzed using the same analytical assessment procedure as the plasma dosimetry samples. Matrix blanks were analyzed with each sample set. HFPO-TeA was not detected in the blanks above the limit of quantitation (LOQ) of 1.58 µM. Statistical analysis is described in Supplementary Text S3, normalization calculations are described in Supplementary Text S5 [47], and the liver-to-plasma partitioning calculation is outlined in Supplementary Text S7 [32, 50, 51]. […]
as §1
Samples were quantitated against matrix-matched calibration curves containing a minimum of 5 points spanning the range 0.99 – 141 ng/mg liver (wet weight, ww). For the calibration standards, commercial rat liver (BioIVT) was spiked with HFPO-TeA and PFHxDA, homogenized, and extracted using the above procedure.
Support ing Text S7: Plasma-to-Liver Partitioning Calculations
Concentrations of HFPO-TeA in liver and plasma were used to calculate experimental Kp values for both sexes across all dose levels using Equation A [3-5].

[4] = parameters: method as in PMID 35436088; conditions: male mice, cited from earlier work
[5] = tested on: rats; parameters: method as in PMID 28962433, PMID 30920876; conditions: exposures up to 500 mg/kg/day; cited from earlier work

O=C(O)C(F)(OC(F)(F)C(F)(OC(F)(F)C(F)(F)C(F)(F)F)C(F)(F)F)C(F)(F)F (stereo not drawn) [HFPO-TA, perfluoro-(2,5-dimethyl-3,6-dioxanonanoic) acid]
relative peak area abundance (RA) vs. HFPO-TeA, Plasma ([1]; HFPO-TeA dose 6.3 mg/kg/day): 0.05 ± 0.04
relative peak area abundance (RA) vs. HFPO-TeA, Plasma ([1]; HFPO-TeA dose 17 mg/kg/day): 1.83 ± 0.85

O=C(O)C(F)(OC(F)(F)C(F)(OC(F)(F)C(F)(OC(F)(F)C(F)(F)C(F)(F)F)C(F)(F)F)C(F)(F)F)C(F)(F)F (stereo not drawn) [HFPO-TeA, perfluoro-(2,5,8-trimethyl-3,6,9-trioxadodecanoic) acid]
LD50 estimate (lower and upper 95% bounds) ([2]; females): 28.23 (18.69 and 41.57) mg/kg/day
premature death ([2]; male and female rats, 45.9, 124, and 335.2 mg/kg/day dose groups): Premature death occurred
doses at which mortality was observed ([2]; male and female rats, oral gavage five days): > 17 mg/kg/day
LD50 estimate (lower and upper 95% bounds) ([2]; males): 37.77 (26.09 and 59.96) mg/kg/day
Kp at 120 h ([3]; female, 0.3 mg/kg/day, F, mean ± SD n=4, read-out: Liver Kp (liver-to-plasma ratio)): 7.81 ± 4.68
Kp at 120 h ([3]; female, 0.9 mg/kg/day, F, mean ± SD n=4, read-out: Liver Kp (liver-to-plasma ratio)): 4.04 ± 1.37
Kp at 120 h ([3]; female, 2.3 mg/kg/day, F, mean ± SD n=4, read-out: Liver Kp (liver-to-plasma ratio)): 1.9 ± 1.47
Kp at 120 h ([3]; female, 6.3 mg/kg/day, F, mean ± SD n=4, read-out: Liver Kp (liver-to-plasma ratio)): 1.65 ± 0.46
Kp at 120 h ([3]; female, 17 mg/kg/day, F, mean ± SD n=4, read-out: Liver Kp (liver-to-plasma ratio)): 0.903 ± 0.145
Kp at 120 h ([3]; male, 0.3 mg/kg/day, M, mean ± SD n=4, read-out: Liver Kp (liver-to-plasma ratio)): 7.28 ± 3.71
Kp at 120 h ([3]; male, 0.9 mg/kg/day, M, mean ± SD n=4, read-out: Liver Kp (liver-to-plasma ratio)): 3.38 ± 1.24
Kp at 120 h ([3]; male, 2.3 mg/kg/day, M, mean ± SD n=4, read-out: Liver Kp (liver-to-plasma ratio)): 1.54 ± 0.91
Kp at 120 h ([3]; male, 6.3 mg/kg/day, M, mean ± SD n=4, read-out: Liver Kp (liver-to-plasma ratio)): 3.41 ± 0.6
Kp at 120 h ([3]; male, 17 mg/kg/day, M, mean ± SD n=4, likely influenced by high toxicity and stress, read-out: Liver Kp (liver-to-plasma ratio)): 1.32 ± 0.55
presence of predicted conjugates (non-targeted analysis) ([1]; plasma or liver): No ions that suggested the presence of the three predicted HFPO-TeA conjugates were observed
experimental Kp ([4]; 0.02 mg/kg/day for 7 days): approximately 20
experimental Kp ([4]; 0.2 mg/kg/day for 7 days): ~40
experimental Kp ([4]; 2 mg/kg/day for 7 days): ~5

O=C(O)C(F)(OC(F)(F)C(F)(F)C(F)(F)F)C(F)(F)F (stereo not drawn) [HFPO-DA, perfluoro-2-methyl-3-oxahexanoic acid]
premature mortality [5]: no reported premature mortality
